Assays:
[1] = Selectivity index, ratio of IC50 for p38 alpha (unknown origin) to IC50 for JNK3 (unknown origin)
[2] = Selectivity index, ratio of IC50 for JNK1 (unknown origin) to IC50 for JNK3 (unknown origin)
[3] = biological target: Mitogen-activated protein kinase 14 (Homo sapiens, UniProt Q16539); assay: Inhibition of p38 alpha (unknown origin) using biotinylated FL-ATF-2 as substrate measured after 22 mins by homogeneous time-resolved fluorescence analysis
[4] = biological target: Mitogen-activated protein kinase 8 (Homo sapiens, UniProt P45983); assay: Inhibition of JNK1 (unknown origin) using biotinylated FL-ATF-2 as substrate measured after 22 mins by homogeneous time-resolved fluorescence analysis
[5] = biological target: Mitogen-activated protein kinase 10 (Homo sapiens, UniProt P53779); assay: Inhibition of JNK3alpha1 (unknown origin) using biotinylated FL-ATF-2 as substrate measured after 22 mins by homogeneous time-resolved fluorescence analysis
[6] = test system: SH-SY5Y; assay: Cytotoxicity against human SH-SY5Y cells assessed as reduction in cell viability at 10 uM measured after 48 hrs by MTT assay; format: cell-based
[7] = Stability in human liver microsome assessed as half life; format: ADME; settings: liver microsomes
[8] = biological target: Mitogen-activated protein kinase 9 (Homo sapiens, UniProt P45984); assay: Inhibition of JNK2 (unknown origin) using biotinylated FL-ATF-2 as substrate measured after 22 mins by homogeneous time-resolved fluorescence analysis
[9] = Stability in mouse liver microsome assessed as half life; format: ADME; settings: liver microsomes

Mitogen-activated protein kinase 14, sequence (Q16539 whole entry): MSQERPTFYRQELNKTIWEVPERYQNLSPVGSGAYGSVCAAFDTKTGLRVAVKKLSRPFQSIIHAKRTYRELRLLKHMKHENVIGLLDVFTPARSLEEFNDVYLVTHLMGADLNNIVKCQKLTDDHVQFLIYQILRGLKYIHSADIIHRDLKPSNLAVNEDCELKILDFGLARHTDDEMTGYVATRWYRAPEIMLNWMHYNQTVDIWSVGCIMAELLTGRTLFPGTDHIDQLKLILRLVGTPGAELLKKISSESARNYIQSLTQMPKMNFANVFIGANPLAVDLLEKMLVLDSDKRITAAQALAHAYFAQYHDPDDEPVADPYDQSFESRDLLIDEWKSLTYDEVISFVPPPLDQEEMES
Mitogen-activated protein kinase 8, sequence (P45983 whole entry): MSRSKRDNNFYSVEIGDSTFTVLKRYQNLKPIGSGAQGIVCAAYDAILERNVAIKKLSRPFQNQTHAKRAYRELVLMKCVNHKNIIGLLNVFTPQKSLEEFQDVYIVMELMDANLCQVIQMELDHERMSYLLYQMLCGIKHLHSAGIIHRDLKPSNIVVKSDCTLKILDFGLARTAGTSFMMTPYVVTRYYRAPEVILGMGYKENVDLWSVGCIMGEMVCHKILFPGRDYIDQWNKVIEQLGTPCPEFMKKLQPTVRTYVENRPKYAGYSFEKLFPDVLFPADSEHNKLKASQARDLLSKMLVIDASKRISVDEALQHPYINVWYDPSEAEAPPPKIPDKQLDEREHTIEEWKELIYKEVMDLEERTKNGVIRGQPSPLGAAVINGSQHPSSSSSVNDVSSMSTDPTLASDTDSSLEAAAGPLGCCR
Mitogen-activated protein kinase 10, sequence (P53779 whole entry): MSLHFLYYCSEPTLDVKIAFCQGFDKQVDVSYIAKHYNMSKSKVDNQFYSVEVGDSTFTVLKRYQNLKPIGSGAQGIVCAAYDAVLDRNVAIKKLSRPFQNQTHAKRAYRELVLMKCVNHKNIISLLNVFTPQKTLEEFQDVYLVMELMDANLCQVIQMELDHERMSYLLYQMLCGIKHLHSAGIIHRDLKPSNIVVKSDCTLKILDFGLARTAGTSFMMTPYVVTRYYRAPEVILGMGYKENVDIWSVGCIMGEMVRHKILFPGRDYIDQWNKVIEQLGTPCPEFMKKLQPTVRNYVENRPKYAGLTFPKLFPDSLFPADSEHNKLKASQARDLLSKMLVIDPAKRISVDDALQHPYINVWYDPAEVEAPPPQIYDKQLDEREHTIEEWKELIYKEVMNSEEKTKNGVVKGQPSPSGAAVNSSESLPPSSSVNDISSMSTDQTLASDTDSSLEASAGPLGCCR
Mitogen-activated protein kinase 9, sequence (P45984 whole entry): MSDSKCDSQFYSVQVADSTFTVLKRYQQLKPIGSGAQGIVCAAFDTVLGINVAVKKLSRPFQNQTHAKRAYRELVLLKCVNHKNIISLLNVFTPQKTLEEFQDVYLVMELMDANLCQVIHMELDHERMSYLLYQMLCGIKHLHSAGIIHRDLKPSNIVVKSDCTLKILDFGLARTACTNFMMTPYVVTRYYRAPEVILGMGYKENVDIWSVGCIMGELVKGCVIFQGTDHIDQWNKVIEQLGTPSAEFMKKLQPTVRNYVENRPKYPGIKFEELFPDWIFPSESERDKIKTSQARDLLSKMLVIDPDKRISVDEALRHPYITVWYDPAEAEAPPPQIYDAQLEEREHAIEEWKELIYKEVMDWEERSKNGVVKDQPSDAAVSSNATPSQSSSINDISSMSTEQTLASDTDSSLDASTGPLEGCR

Structure (SMILES) | Ratio IC50 [1] | Ratio IC50 [2] | IC50 [3] | IC50 [4] | IC50 [5] | Ratio IC50 ([1]; tested as the 2H-labelled form) | Ratio IC50 ([2]; tested as the 2H-labelled form) | half-life [7] | IC50 [8] | half-life [9] | Cell viability [6]
Cc1nc2c(cnn2-c2csc(C(=O)NC3COC3)c2)cc1Nc1ccc(F)cc1Cl | 6 | 76 | 490 nM | 6000 nM | 79 nM |  |  |  |  |  | 
CN1CC[C@H](NC(=O)c2cc(-n3ncc4cc(Nc5ccccc5Cl)c(F)cc43)cs2)C1 |  |  |  |  |  | 60 | 57 |  |  |  | 
CNC(=O)c1cc(-n2ncc3cc(Nc4cccc(OC)c4Cl)c(C)nc32)cs1 |  |  | > 10000 nM | > 10000 nM | > 10000 nM |  |  |  |  |  | 
O=C(NC1COC1)c1cc(-n2ncc3nc(Nc4ccccc4Cl)ccc32)cs1 |  |  |  |  | 100 nM |  |  |  |  |  | 
CNC(=O)c1cc(-n2ncc3cc(Oc4ccccc4Cl)ccc32)cs1 |  |  |  |  |  |  |  | 72 min | 1020 nM | 15 min | 94%
CN1CC[C@H](NC(=O)c2cc(-n3ncc4cc(Nc5ccccc5Cl)ccc43)cs2)C1 |  |  |  |  |  | 226 | 263 |  |  |  | 
Cc1nc2c(cnn2-c2csc(C(=O)NC3COC3)c2)cc1Nc1cccc(F)c1Cl | 8 | > 59 | 1420 nM | > 10000 nM | 169 nM |  |  |  |  |  | 
Cc1nc2c(cnn2-c2csc(C(=O)NC3COC3)c2)cc1Nc1cc(F)ccc1Cl |  |  | 2890 nM | > 10000 nM | 1070 nM |  |  |  |  |  | 
CNC(=O)c1cc(-n2ncc3nc(Nc4ccccc4Cl)ncc32)cs1 |  |  |  |  | 1000 nM |  |  |  |  |  | 

Continued, in another order:

Ratio IC50 [1] | Ratio IC50 [2] | IC50 [3] | IC50 [4] | IC50 [5] | Ratio IC50 ([1]; tested as the 2H-labelled form) | Ratio IC50 ([2]; tested as the 2H-labelled form) | half-life [7] | IC50 [8] | half-life [9] | Structure (SMILES) | Cell viability [6]
12 | 89 | 24 nM | 178 nM | 2 nM |  |  |  |  |  | O=C(N[C@H]1CCOC1)c1cc(-n2ncc3cc(Nc4ccccc4Cl)c(F)cc32)cs1 | 
24 | 60 | 47 nM | 120 nM | 2 nM |  |  |  |  |  | O=C(NC1CCOCC1)c1cc(-n2ncc3cc(Nc4ccccc4Cl)c(F)cc32)cs1 | 
12 | 83 | 46 nM | 333 nM | 4 nM |  |  |  |  |  | O=C(NCC(F)F)c1cc(-n2ncc3cc(Nc4ccccc4Cl)c(F)cc32)cs1 | 
62 | 200 | 124 nM | 400 nM | 2 nM |  |  |  |  |  | CC(C)NC(=O)c1cc(-n2ncc3cc(Nc4ccccc4Cl)c(F)cc32)cs1 | 
17 | 139 | 86 nM | 690 nM | 5 nM |  |  |  |  |  | O=C(NC1COC1)c1cc(-n2ncc3cc(Nc4ccccc4Cl)ncc32)cs1 | 
8 | 55 | 160 nM | 1100 nM | 20 nM |  |  |  |  |  | CNC(=O)c1cc(-n2ncc3cc(Nc4ccccc4Cl)c(OC)cc32)cs1 | 
14 | 150 | 14 nM | 150 nM | 1 nM |  |  |  |  |  | O=C(NC1CC1)c1cc(-n2ncc3cc(Nc4ccccc4Cl)c(F)cc32)cs1 | 
13 | 248 | 65 nM | 1240 nM | 5 nM |  |  |  |  |  | CNC(=O)c1cc(-n2ncc3cc(Nc4c(F)cccc4OC)c(F)cc32)cs1 | 
14 | 56 | 41 nM | 169 nM | 3 nM |  |  |  |  |  | COCCNC(=O)c1cc(-n2ncc3cc(Nc4ccccc4Cl)c(F)cc32)cs1 | 
10 | 27 | 325 nM | 825 nM | 31 nM |  |  |  |  |  | CC(C)N1CC[C@@H](NC(=O)c2cc(-n3ncc4cc(Nc5ccccc5Cl)ccc43)cs2)C1 | 
16 | 132 | 65 nM | 627 nM | 4 nM |  |  |  |  |  | CC(=O)N1CC[C@H](NC(=O)c2cc(-n3ncc4cc(Nc5ccccc5Cl)c(F)cc43)cs2)C1 | 
 |  | > 20000 nM |  | < 1 nM |  |  |  |  |  | O=C(Nc1cnn(-c2cccc(C(=O)Nc3cnn(C4CCNC4)c3)c2)c1)Nc1ccccc1Cl (stereo not given) | 
 |  | 106 nM | 213 nM | 2 nM |  |  | 30 min | 52 nM | 22 min | CNC(=O)c1cc(-n2ncc3cc(Nc4c(F)cccc4Cl)cnc32)cs1 | 104%

— ChEMBL document CHEMBL4837263, “N-Aromatic-Substituted Indazole Derivatives as Brain-Penetrant and Orally Bioavailable JNK3 Inhibitors” (ACS Med Chem Lett, 2021)
